Measured values taken from PMC6008168 (Bioorganic & medicinal chemistry letters, 2017).

Columns and labels:
[1] = Permeability, PAMPA assay; type: in vitro ADME
[2] = biological target: T1, VDR (Homo sapiens, UniProt P11473); experiment: VDR transcription assay; type: cell-based; details: compared with GW0742
T1 sequence (P11473 1-427): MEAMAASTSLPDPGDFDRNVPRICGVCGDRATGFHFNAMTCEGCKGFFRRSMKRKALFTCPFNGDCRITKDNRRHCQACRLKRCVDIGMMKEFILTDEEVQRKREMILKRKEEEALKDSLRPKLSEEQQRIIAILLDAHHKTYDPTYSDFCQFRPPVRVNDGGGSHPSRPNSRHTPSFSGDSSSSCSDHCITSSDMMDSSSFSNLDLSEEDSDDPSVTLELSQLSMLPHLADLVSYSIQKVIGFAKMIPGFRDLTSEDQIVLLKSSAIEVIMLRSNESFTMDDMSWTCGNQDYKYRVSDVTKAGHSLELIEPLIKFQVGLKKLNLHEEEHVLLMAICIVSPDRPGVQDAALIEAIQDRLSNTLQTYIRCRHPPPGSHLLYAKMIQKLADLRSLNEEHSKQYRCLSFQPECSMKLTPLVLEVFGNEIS

[3] = biological target: T2, PPARδ (Homo sapiens, UniProt Q03181); experiment: PPARδ transcription 2-hybrid assay; type: cell-based; details: up to 100 μM
T2 sequence (Q03181 211-439 limits assumed): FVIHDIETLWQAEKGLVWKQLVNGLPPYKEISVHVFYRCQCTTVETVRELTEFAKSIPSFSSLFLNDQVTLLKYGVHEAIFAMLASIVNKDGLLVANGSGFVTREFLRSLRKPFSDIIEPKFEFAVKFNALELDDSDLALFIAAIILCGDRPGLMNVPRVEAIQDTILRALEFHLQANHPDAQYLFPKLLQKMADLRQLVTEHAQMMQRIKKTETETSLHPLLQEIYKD

[4] = Toxicity, Cell-TiterGlo; type: cell-based; details: n.o.= not observed

| SMILES | Papp [1] | further results |
| --- | --- | --- |
| COC(=O)c1cccc(OCc2oc(-c3ccccc3OC)nc2C)c1 [5a] | 380 ×10⁻⁶ cm/s | increased potency in respect to GW0742 (VDR antagonism) [2]: 10 fold; activation of PPARδ-mediated transcription (in words) [3]: inability to activate |
| COc1cccc(-c2nc(C)c(COc3ccccc3C(=O)O)o2)c1 [9b] | 234 ×10⁻⁶ cm/s | – |
| COC(=O)Cc1ccc(OCc2oc(-c3ccccc3OC)nc2C)cc1 [7a] | 275 ×10⁻⁶ cm/s | – |
| COC(=O)CCc1ccc(OCc2oc(-c3cccc(OC)c3)nc2C)cc1 [8b] | 457 ×10⁻⁶ cm/s | – |
| COC(=O)Cc1ccc(OCc2oc(-c3cccc(OC)c3)nc2C)cc1 [7b] | 479 ×10⁻⁶ cm/s | activation of PPARδ-mediated transcription (in words) [3]: without activating |
| COC(=O)CCc1ccc(OCc2oc(-c3ccccc3OC)nc2C)cc1 [8a] | 457 ×10⁻⁶ cm/s | – |
| COC(=O)c1ccccc1OCc1oc(-c2cccc(OC)c2)nc1C [4b] | 513 ×10⁻⁶ cm/s | – |
| COC(=O)c1ccc(OCc2oc(-c3cccc(OC)c3)nc2C)cc1 [6b] | 372 ×10⁻⁶ cm/s | – |
| COc1ccccc1-c1nc(C)c(COc2ccccc2C(=O)O)o1 [9a] | 234 ×10⁻⁶ cm/s | – |
| COC(=O)c1ccc(OCc2oc(-c3ccccc3OC)nc2C)cc1 [6a] | 447 ×10⁻⁶ cm/s | – |
| COC(=O)c1ccccc1OCc1oc(-c2ccccc2OC)nc1C [4a] | 468 ×10⁻⁶ cm/s | – |
| COC(=O)c1cccc(OCc2oc(-c3cccc(OC)c3)nc2C)c1 [5b] | 427 ×10⁻⁶ cm/s | – |

Now from value to compound, other results behind:

| Papp [1] | SMILES | further results |
| --- | --- | --- |
| 263 ×10⁻⁶ cm/s | COc1ccccc1-c1nc(C)c(COc2cccc(C(=O)O)c2)o1 [10a] | % Toxicity at 100 μM [4]: n.o. |
| 132 ×10⁻⁶ cm/s | COc1cccc(-c2nc(C)c(COc3ccc(CC(=O)O)cc3)o2)c1 [12b] | – |
| 214 ×10⁻⁶ cm/s | COc1ccccc1-c1nc(C)c(COc2ccc(C(=O)O)cc2)o1 [11a] | % Toxicity at 100 μM [4]: n.o. |
| 120 ×10⁻⁶ cm/s | COc1cccc(-c2nc(C)c(COc3ccc(CCC(=O)O)cc3)o2)c1 [13b] | – |
| 170 ×10⁻⁶ cm/s | COc1cccc(-c2nc(C)c(COc3ccc(C(=O)O)cc3)o2)c1 [11b] | – |
| 191 ×10⁻⁶ cm/s | COc1ccccc1-c1nc(C)c(COc2ccc(CC(=O)O)cc2)o1 [12a] | % Toxicity at 100 μM [4]: n.o. |
| 132 ×10⁻⁶ cm/s | COc1cccc(-c2nc(C)c(COc3cccc(C(=O)O)c3)o2)c1 [10b] | – |
| 257 ×10⁻⁶ cm/s | COc1ccccc1-c1nc(C)c(COc2ccc(CCC(=O)O)cc2)o1 [13a] | – |
